Measured values reported in patent US7226783B1, “Vanillin production” (David Michael & Co., Inc., priority 1997, dated 2007).

Assays:
[1] = test system: alcohol dehydrogenase from Vanilla planifolia embryo culture (vanillyl alcohol dehydrogenase, VAD); experiment: Substrate specificity of vanillyl alcohol dehydrogenase (VAD); format: biochemical
Experimental: We have purified and characterized the activity of VAD that catalyze the reduction of vanillin to vanillyl alcohol. The enzyme was identified as an NADH or NADPH-dependent alcohol dehydrogenase. The purification protocol was as set forth below.
Crude enzyme extract: Tissue was homogenized in 0.05 M actetate-Na buffer pH 4.0 (in proportion, 1 g of the tissue and 5 ml of the buffer) in an ice bath, using Polytrone homogenizer, at 20,000 revolutions of the blade per min. The homogenate was centrifuged at 13000 g for 15 min at 4° C. and the supernatant served as the crude enzyme source.
Ammonium sulfate fractionation and molecular sieving: Crude enzyme extract (100 ml) was supplied with ammonium sulfate in an ice bath up to 60% of saturation (44.4 g of Ammonium sulphate per 100 ml). The precipitate was centrifuged and discarded. The supernatant was supplied with ammonium sulfate up to 90% of saturation (total 64.6 g per 100 ml of crude extract). The precipitate was collected (10 min centrifugation at 10,000 g), dissolved in 7 ml of extraction buffer and subjected to molecular sieving at Sephacryl S-300 High Load Column (LKB Pharmacia) 2.6×60 cm, in 0.1 M pH 4.0 acetate-Na buffer. The flow rate was adjusted to 1 ml/min and 5 ml fractions were collected. The protein elution profile was monitored at 280 nm. Five fractions (of a total of 50) containing dehydrogenase activity (130–155 ml of the column eluate) were collected.
The column was developed with 0.5 M Tris/HCL buffer pH 7.4 in 0.0–1.0 M NaCl gradient (total gradient volume—70 ml) and 2.5 ml fractions were collected. Vanillyl alcohol dehydrogenase was released from the column between 0.3–0.4 M NaCl. Fractions containing VAD activity were dialysed overnight against 0.05 M caetate-Na buffer pH 4.0 and concentrated up to 50 times using Minicon concentrating filters (Amicon). […]

[2] = test system: Vanilla embryo culture; experiment: Feeding vanilla embryo culture with vanillin precursors, HPLC analysis of metabolites; format: cell-based, Vanilla planifolia
From the text: We derived a scheme for the vanillin biosynthetic pathway by analysis of metabolites in cultured embryos and by experiments with feeding of precursors and intermediates. This scheme is shown in FIG. 1 and the experiments are described below.
Embryo cultures of Vanilla planifolia were established as described in Example 1. The procedures used to extract phenolics from the cultured embryo cells and to analyze the extracts by high pressure liquid chromatography (HPLC) were as described generally by Havkin-Frenkel et al., Plant Cell, Tissue and Organ Culture 45: 133–136 (1996).
In the extraction procedure, 3 ml of 0.05 M sodium acetate buffer, pH 5.5, was added to about 1 gram of fresh culture. Samples were placed in boiling water for three minutes, then chilled. The cells were next homogenized in a Polytron blender for 1 minute at medium speed. A β-glucosidase solution was added to the homogenized cells to give a final concentration of 0.2%. Each sample was then incubated at 37° C. for 5 hr. Next, 17 ml of 95% ethanol was added, after which incubation at 37° C. was continued for an additional 24 hrs. The extract was then filtered and the ethanol evaporated. The filtrate was extracted twice using ethyl acetate, then extracted twice with ethyl acetate acidified to pH 3 with HCl. The extracts were combined and the ethyl acetate evaporated. The residue was dissolved in 1 ml of acidified methanol and filtered with a 0.45 μm syringe filter for HPLC analysis.
Extractions of metabolites from culture medium was similar to the cell extraction protocol. Five ml of spent medium was incubated in a β-glucosidase solution at 37° C. for 24 hrs. The medium was then extracted with ethyl acetate and the organic portions combined and evaporated, as for the cell extracts.
Metabolite levels were measured with a Hewlett Packard 1090L or a Waters HPLC with a UV detector at 280 nm. The Waters HPLC was also equipped with a diode array detector to confirm the identities of the various intermediates, and the identities of the various intermediates were further confirmed by mass spectrometry. The column was a Supelco C-18 DB column of dimensions 250 mm×4.6 mm and a particle size of 5 μm. The mobile phase contained methanol and water, each of which was acidified with 1.25% acetic acid. The flow rate was 1 ml/min, with a solvent gradient as follows: […]
Results of selected experiments in which precursors or elicitors were added to vanilla cultures are set forth below. These experiments were performed in accordance with the procedures set forth in Examples 1–4.

[3] = test system: V. planifolia embryo culture; experiment: Uptake of exogenously added vanillin and transformation to vanillyl alcohol in embryo culture; format: cell-based, Vanilla planifolia
From the text: FIG. 3. Graph showing uptake of exogenously added vanillin and its transformation to vanillyl alcohol by vanillyl alcohol dehydrogenase in V. planifolia embryo culture. V(T)=vanillin in tissue; V(M)=vanillin in medium; VAL(T)=vanillyl alcohol in tissue; VAL(M)=vanillyl alcohol in medium.
Similarly, vanilla embryo culture that can be elicited by various elicitors to produce vanillin accumulates vanillyl alcohol as a final product. It is important to state at this stage that all the intermediates in the pathway are found mainly as glucosides.

[4] = test system: V. planifolia tissue culture; experiment: Bio-conversion of 3,4-dihydroxybenzaldehyde to vanillin and vanillyl alcohol in tissue culture; format: cell-based, Vanilla planifolia; conditions: addition of 1–5 mM pro-ald
Experimental: The following procedure was used for the bio-conversion of 3,4-dihydroxybenzaldehyde (“proaldehyde”) to vanillin and vanillyl alcohol in V. planifolia tissue culture. The medium used for cultures was G-medium as described above. Pro-ald solutions were prepared in G-medium, to final concentrations of 0.01 to 5 mM.
Cultures used for the bio-conversion were (1) clusters, (2) embryo culture, and (3) tissue homogenates of the above cultures. Cultures were of varying ages ranging from 0 to 1 month old. The cultures were allowed to remain under normal culture conditions for 0 to 15 days. As controls, untreated cultures were extracted and analyzed as described in Example 2.
Proaldehyde at different concentrations was added to the medium, either alone or in combination with the following treatments:
Bioreactor-grown cultures were used for the bio-conversions. Different kinds of impeller designs were used to increase or decrease shear stress on the cells prior to the addition of pro-ald.

substrate preference of VAD [1]: most preferred substrates | Activity with the compound as substrate, NADH ([1]; cofactor NADH): 1.89 nmoles · gfwt^−1 · min^−1 | Activity with the compound as substrate, NADPH ([1]; cofactor NADPH): 2.11 nmoles · gfwt^−1 · min^−1
Structure (SMILES): O=Cc1ccc(O)c(O)c1 [PRO-ALD, 3,4-dihydroxybenzaldehyde]
fate of exogenously fed compound in cultured embryos ([2]; feeding experiments, Example 2): rapid methylation and conversion to vanillin or vanillyl alcohol | CA (p-coumaric acid) content of culture ([2]; precursor fed at 1 mM): 285 mg/100 g dry wt. | HBA (p-hydroxybenzyl alcohol) content of culture ([2]; precursor fed at 1 mM): 8950 mg/100 g dry wt. | PRO-ALD (3,4-dihydroxybenzaldehyde) content of culture ([2]; precursor fed at 1 mM): 433 mg/100 g dry wt. | VN (vanillin) content of culture ([2]; precursor fed at 1 mM): 16.7 mg/100 g dry wt. | VN ALC (vanillyl alcohol) content of culture ([2]; precursor fed at 1 mM): 286.8 mg/100 g dry wt. | fate of compound applied to the growing medium of embryo culture [3]: accumulation of vannilyl alcohol | increase of production of vanillin/vanillyl alcohol [4]: several hundred fold
